In general, pEC50 refers to the EC50 on a negative log10 scale, so that one unit is a factor of ten.

The results in this text go back to patent US20260001928A1 (CORTERIA PHARMACEUTICALS, priority 2022, published 2026).

pEC50: −log10 of the molar value. *1 amine or outer side, *2 acyl side, *3 side chain or, on linkers, in order; H or OH if unused. Where a SMILES comes first, the peptide text is derived from it. Side-chain parts run from the residue outwards. [ ]: non-standard residue; d: D form. The star is where a group is joined. C16 diacid = O=C(O)CCCCCCCCCCCCCCC(=O)*; γGlu = O=C(O)[C@H](CCC(=O)[*:2])N[*:1]; αMeL = CC(C)C[C@](C)(N)C(=O)O; Aib = CC(C)(N)C(=O)O Where only a bound is given, the exact number is not on record here.

Test [1] addresses T1, human CRF2a receptor (Homo sapiens, UniProt Q13324).
T1 construct: expressed in transfected cells; host or cells: TeloHEAC cells
T1 sequence (Q13324 1-411): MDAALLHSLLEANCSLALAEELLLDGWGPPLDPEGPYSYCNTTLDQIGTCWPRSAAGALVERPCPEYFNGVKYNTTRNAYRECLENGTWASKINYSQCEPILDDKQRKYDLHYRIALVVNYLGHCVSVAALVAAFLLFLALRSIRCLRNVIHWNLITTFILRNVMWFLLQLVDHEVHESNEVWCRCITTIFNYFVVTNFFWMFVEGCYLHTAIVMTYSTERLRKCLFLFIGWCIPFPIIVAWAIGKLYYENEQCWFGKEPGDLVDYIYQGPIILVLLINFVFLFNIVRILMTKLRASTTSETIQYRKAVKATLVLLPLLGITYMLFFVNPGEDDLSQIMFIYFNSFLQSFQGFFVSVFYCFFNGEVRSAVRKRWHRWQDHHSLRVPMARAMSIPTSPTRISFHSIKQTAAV
The experiment in a line: Activity at human CRF2a receptor, cAMP functional assay in TeloHEAC cells. The class given is cell-based. Particulars: TeloHEAC cells stably expressing human CRF2a receptor, relative to urocortin 2 (100 nM = 100%). The procedure, abridged:
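cAMP accumulation was measured by HTRF 665/620 nm ratio after 30 min at 37° C compound exposure (16 twofold dilutions) of CRF2a-expressing TeloHEAC cells, 10000/well, in HEPES-buffered HBSS plus IBMX. Activity was normalised to urocortin 2 at 100 nM (100%), and EC50 was the concentration giving half-maximal activation.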

The target in test [2] is T2, CFR1R receptor (Homo sapiens, UniProt P34998).
T2 construct: host or cells: CHO-K1 (clone 2)
T2 sequence (P34998 24-415): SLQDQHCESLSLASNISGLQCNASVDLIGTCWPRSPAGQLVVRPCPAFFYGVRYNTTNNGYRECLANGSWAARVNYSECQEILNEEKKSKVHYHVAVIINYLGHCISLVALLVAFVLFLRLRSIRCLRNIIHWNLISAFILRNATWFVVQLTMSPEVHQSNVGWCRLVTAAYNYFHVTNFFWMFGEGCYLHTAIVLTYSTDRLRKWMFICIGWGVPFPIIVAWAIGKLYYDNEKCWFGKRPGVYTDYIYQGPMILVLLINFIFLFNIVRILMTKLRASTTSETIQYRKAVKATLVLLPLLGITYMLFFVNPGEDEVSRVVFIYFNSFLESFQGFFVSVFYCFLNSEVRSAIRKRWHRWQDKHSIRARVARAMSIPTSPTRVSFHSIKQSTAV
The experiment in a line: Activity at anti-target CFR1R receptor, cAMP assay in CRF1R-overexpression CHO-K1 cells. It counts as cell-based. Particulars: 100% = Sauvagine at 100 nM; for pEC50: cAMP. In short, it runs like this: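 Clone 2 cells were cultured in F12 (Hams)/10% FBS/400 μg/ml G418 at 37° C./5% CO2, frozen in medium with 10% DMSO, and thawed vials used. The protocol followed the TeloHAEC procedure, with 4000 cells/well final and Sauvagine at 100 nM defining 100% activation.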
(In general: Cyclic AMP is a second messenger, typically raised through Gs and lowered through Gi signalling.)

`CC[C@H](C)[C@H](NC(C)=O)C(=O)N[C@H](C(=O)N[C@@H](CC(C)C)C(=O)N[C@@H](CO)C(=O)N[C@@H](CC(C)C)C(=O)N[C@@H](CC(=O)O)C(=O)N[C@@H](C(=O)N1CCC[C@H]1C(=O)N[C@H](C(=O)N[C@@H](CCCCN)C(=O)N[C@@](C)(CC(C)C)C(=O)N[C@@H](CCCCNC(=O)CC[C@H](NC(=O)CCCCCCCCCCCCCCC(=O)O)C(=O)O)C(=O)N[C@@H](CCCCN)C(=O)N[C@H](C(=O)N[C@@H](CC(C)C)C(=O)N[C@@H](CC(C)C)C(=O)N[C@@H](CCC(=O)O)C(=O)N[C@@H](CCC(N)=O)C(=O)N[C@@H](CCC(=O)O)C(=O)N[C@@H](CCCCN)C(=O)N[C@@H](CCC(N)=O)C(=O)N[C@@H](CCCCN)C(=O)N[C@@H](CCCCN)C(=O)N[C@@H](CCC(N)=O)C(=O)N[C@@H](CCCNC(=N)N)C(=O)N[C@@H](CCC(=O)O)C(=O)N[C@@H](CCC(N)=O)C(=O)N[C@@H](C)C(=O)N[C@@H](CCC(=O)O)C(=O)N[C@H](C(=O)N[C@@H](CC(N)=O)C(=O)NC(C)(C)C(=O)N[C@@H](CCC(N)=O)C(=O)N[C@H](C(=O)N[C@@H](CC(C)C)C(=O)N[C@@H](C)C(=O)N[C@@H](CCC(N)=O)C(=O)N[C@H](C(N)=O)C(C)C)[C@@H](C)CC)[C@@H](C)O)[C@@H](C)CC)[C@@H](C)CC)C(C)C)C(C)C` [compound 44] (Ac-IVLSLD[dV]PIK[αMeL]K([γGlu-C16 diacid])KILLEQEKQKKQREQAETN[Aib]QILAQV-NH2) showed a negative-log EC50 (pEC50) in test [1] of 9.60. In test [2], the “Emax (% I)” value turned out to be 5 % I and the pEC50 is under 6.60.

`CC[C@H](C)[C@H](NC(=O)[C@H](CCC(N)=O)NC(=O)C(C)(C)NC(=O)[C@H](CC(N)=O)NC(=O)[C@@H](NC(=O)[C@H](CCC(=O)O)NC(=O)[C@H](C)NC(=O)[C@H](CCC(N)=O)NC(=O)[C@H](CCC(=O)O)NC(=O)[C@H](CCCNC(=N)N)NC(=O)[C@H](CCC(N)=O)NC(=O)[C@H](CCCCN)NC(=O)[C@H](CCCCN)NC(=O)[C@H](CCC(N)=O)NC(=O)[C@H](CCCCN)NC(=O)[C@H](CCC(=O)O)NC(=O)[C@H](CCC(N)=O)NC(=O)[C@H](CCC(=O)O)NC(=O)[C@H](CC(C)C)NC(=O)[C@H](CC(C)C)NC(=O)[C@@H](NC(=O)[C@H](CCCCN)NC(=O)[C@H](CCCCNC(=O)CC[C@H](NC(=O)CCCCCCCCCCCCCCC(=O)O)C(=O)O)NC(=O)[C@H](CC(C)C)NC(=O)[C@H](CCCCN)NC(=O)[C@@H](NC(=O)[C@@H]1CCCN1C(=O)[C@H](NC(=O)[C@H](CC(=O)O)NC(=O)[C@H](CC(C)C)NC(=O)[C@H](CO)NC(=O)[C@H](CC(C)C)NC(=O)[C@@H](NC(C)=O)C(C)C)C(C)C)[C@@H](C)CC)[C@@H](C)CC)[C@@H](C)O)C(=O)N[C@@H](CC(C)C)C(=O)N[C@@H](C)C(=O)N[C@@H](CCC(N)=O)C(=O)N[C@H](C(N)=O)C(C)C` [compound 45] (Ac-VLSLD[dV]PIKLK([γGlu-C16 diacid])KILLEQEKQKKQREQAETN[Aib]QILAQV-NH2) showed a pEC50 in test [1] of 9.02. Moreover, in test [2], the “Emax (% I)” value is given as 5 % I and the pEC50 was under 6.60.
